# From PMC12898745, “VOCs Profiling and Quality Assessment of Milk Employing Odorant-Binding Proteins-Based Fluorescence Biosensor” (International Journal of Molecular Sciences, 2026)
# Like-named read-outs stand apart in the source and are kept apart here.
# T1: pOBP (Sus scrofa, UniProt P81245)
# T1 sequence (P81245 1-157): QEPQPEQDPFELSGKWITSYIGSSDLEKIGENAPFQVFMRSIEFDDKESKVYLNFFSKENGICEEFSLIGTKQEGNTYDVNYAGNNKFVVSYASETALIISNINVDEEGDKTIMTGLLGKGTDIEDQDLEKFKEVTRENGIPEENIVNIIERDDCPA
# T2: bOBP (Bos taurus, UniProt P07435)
# T2 sequence (P07435 1-159): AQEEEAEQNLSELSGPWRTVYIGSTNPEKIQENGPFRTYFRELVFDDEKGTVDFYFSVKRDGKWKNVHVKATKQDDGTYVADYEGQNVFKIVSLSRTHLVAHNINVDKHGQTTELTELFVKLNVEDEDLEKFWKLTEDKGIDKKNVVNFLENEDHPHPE
# T3: bOBP (Bos taurus, UniProt P07435, H155C/INS121G/W64C)
# T3 construct: His tag; made in house
# T3 sequence (P07435 with tags, fused parts or gaps W64C/INS121G/H155C): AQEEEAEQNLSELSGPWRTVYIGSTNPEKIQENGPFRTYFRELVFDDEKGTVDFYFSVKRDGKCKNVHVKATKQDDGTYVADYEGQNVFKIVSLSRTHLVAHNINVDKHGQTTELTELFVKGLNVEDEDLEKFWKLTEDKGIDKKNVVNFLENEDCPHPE
# Experiments:
# pOBP [1] = target: T1, pOBP; assay: Fluorescence titration with 1-AMA and competitive FRET assay on pOBP; format: binding, porcine
# Method: (§1) The ability of pOBP and bOBP to bind 1-AMA was assessed through fluorescence titration experiments. […] However, upon binding 1-AMA to OBPs, two major spectral changes were observed: • A blue-shift in the emission maximum to 481 nm, along with a significant increase in fluorescence intensity. • A decrease in the tryptophan fluorescence emission at 340 nm.
# A competitive FRET assay was performed to study the interaction between the OBP and the selected VOCs. In the assay, a solution of OBPs in the presence of 1-AMA was titrated with increasing concentrations of VOCs. The fluorescence emissions at 481 nm (1-AMA bound state) and 340 nm (tryptophan emission) were recorded. A progressive decrease of 1-AMA fluorescence emission and a partial recovery of the protein tryptophan emission were observed. This trend indicates the displacement of 1-AMA from the protein binding site by individual selected VOCs. The variations in the FRET signals, due to competitive binding, were used to quantify the VOC bound to the protein.
# Steady-state fluorescence measurements were conducted using an ISS K2 Frequency-Domain Fluorometer (ISS Inc., Champaign, IL, USA) with a 1.0 cm path length quartz cuvette. Fluorescence spectra of bOBP and pOBP samples were recorded, ensuring optical densities below 0.1 OD at 295 nm to prevent inner filter effects. Tryptophan (Trp) residues were excited at 295 nm, and fluorescence emission spectra were collected from 320 nm to 600 nm at 1 nm intervals, with a scan speed of 100 nm/min and excitation and emission slit widths set at 1.0 nm. The lamp power was maintained at 17.5 A. Assays were performed in 500 μL of phosphate saline buffer (PBS) at pH 7.4. The OBPs-VOCs interactions were studied by a fluorescence titration approach. For this purpose, the protein (12 µM, saturated with 1-AMA) was titrated with increasing concentrations of the tested VOC. The measurements were carried out in triplicate, and the obtained experimental data were processed by OriginPro 2021b software.
# For the fluorometric competitive assay, the ability of OBPs to bind VOCs and 1-AMA was utilized to develop a FRET-based assay. The competition between VOCs and 1-AMA for binding to the OBP’s active site was studied by monitoring the fluorescence emission decrease consequent to the VOCs displacement of 1-AMA from the OBP’s active site. […] The measurements were carried out in triplicate, and the data were analyzed using the OriginPro 2021b software.
# bOBP [2] = target: T2, bOBP; assay: Fluorescence titration with 1-AMA and competitive FRET assay on bOBP; format: binding, bovine; conditions: read-out: bOBP Kd ± SD; non-linear fitting; PBS pH 7.4; VOCs by displacement of 1-AMA
# Method: as §1
# A competitive FRET assay was performed to study the interaction between the OBP and the selected VOCs. In the assay, a solution of OBPs in the presence of 1-AMA was titrated with increasing concentrations of VOCs. The fluorescence emissions at 481 nm (1-AMA bound state) and 340 nm (tryptophan emission) were recorded. A progressive decrease of 1-AMA fluorescence emission and a partial recovery of the protein tryptophan emission were observed. […] The variations in the FRET signals, due to competitive binding, were used to quantify the VOC bound to the protein.
# Steady-state fluorescence measurements were conducted using an ISS K2 Frequency-Domain Fluorometer (ISS Inc., Champaign, IL, USA) with a 1.0 cm path length quartz cuvette. Fluorescence spectra of bOBP and pOBP samples were recorded, ensuring optical densities below 0.1 OD at 295 nm to prevent inner filter effects. […] The OBPs-VOCs interactions were studied by a fluorescence titration approach. […]
# pOBP [3] = target: T1, pOBP; assay: HS-SPME/GC-MS binding assay with pOBP; parameters: species or system porcine; conditions: pOBP 30 µM; 10 µM volatile, overnight, room temperature
# Method: To assess the ability of pOBP to bind VOCs, HS-SPME/GC-MS analyses were carried out on binding assays in the absence and in the presence of the two OBPs. Binding assay experiments were conducted in parallel on samples in the absence (only buffer as negative control) and in the presence of bovine serum albumin (BSA) (used as negative control of protein) or pOBP.
# The HS-SPME/GC-MS technique was used to evaluate the VOCs profiles of samples of raw cow milk and, successively, the ability of purified OBPs to bind to selected VOCs in the gas phase. According to Sacchi et al., 5 mL of milk were introduced in a HS-SPME 20 mL glass vial, with 5 µL of a standard solution of 2-methyl-3-pentanone used as internal standard (IS, 5 mM). Samples were equilibrated for 30 min at 55 °C to release VOCs. […] The analyses were carried out using the pulsed spitless mode, and mass spectra were recorded at an ionization energy of 70 eV, with mass selective detector operating in the mass range between 30 and 300 u. […]
# Linear retention indices (LRIs) were calculated using the same chromatographic conditions by injecting C8–C40 n-alkane series (Supelco, Bellefonte, PA, USA). VOCs were identified by comparing the mass spectra reported in the NIST-2014 and Wiley 7.0 libraries by matching the calculated LRI with the literature data and by valuating their retention times, with respect to those of pure standards, if available. The VOCs concentrations were expressed as the equivalent of the IS (percent ratio of the respective peak area relative to the IS area, RPA%), and areas were taken from the total ion chromatogram (TIC) according to the following equation: (Peak Area of each VOC/Peak Area IS) × 100.
# Using the same experimental parameters reported above, HS-SPME/GC-MS analysis was also performed on pOBP samples with and without exposition to the HS of the selected VOCs. […] The peak areas measured for PBS-only and pOBP-comprising samples were compared for each experiment. […]
# [4] = target: bovine serum albumin (BSA) (Bos taurus, UniProt P02769); assay: HS-SPME/GC-MS binding assay with BSA (negative control protein); conditions: BSA in place of pOBP; 10 µM volatile, overnight, room temperature
# Chain of bovine serum albumin (BSA) (P02769 25-607): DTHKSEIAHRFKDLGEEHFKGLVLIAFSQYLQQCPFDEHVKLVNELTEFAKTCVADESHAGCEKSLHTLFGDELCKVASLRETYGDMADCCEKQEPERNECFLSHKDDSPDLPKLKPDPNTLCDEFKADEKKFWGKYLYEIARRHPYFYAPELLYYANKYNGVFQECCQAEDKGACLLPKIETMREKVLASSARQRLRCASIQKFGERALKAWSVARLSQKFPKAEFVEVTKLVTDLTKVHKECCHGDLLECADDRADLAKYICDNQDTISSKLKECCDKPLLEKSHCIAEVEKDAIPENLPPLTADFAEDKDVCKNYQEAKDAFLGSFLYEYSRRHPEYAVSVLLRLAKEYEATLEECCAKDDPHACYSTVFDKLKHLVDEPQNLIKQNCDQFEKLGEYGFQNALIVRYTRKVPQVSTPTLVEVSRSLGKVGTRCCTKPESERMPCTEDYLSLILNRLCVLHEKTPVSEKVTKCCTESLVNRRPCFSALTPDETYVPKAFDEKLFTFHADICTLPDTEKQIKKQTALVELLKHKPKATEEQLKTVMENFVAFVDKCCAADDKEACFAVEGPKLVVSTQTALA
# Method: Afterwards, the fiber (DVB-Carboxen-PDMS, 2 cm length SUPELCO, Bellefonte, PA, USA) was automatically inserted in the vial for 60 min and then desorbed for 10 min at 250 °C in the injector port of a GC, model 7890A, Agilent (Agilent Technologies, Santa Clara, CA, USA) coupled to a mass spectrometer, model 5975 C (Agilent), where VOCs were thermally released and directly transported to a capillary column HP-Innowax (30 m × 0.25 mm × 0.5 µm Agilent J&W) for analysis. The oven temperature was set as follows: 40 °C for 1 min, ramped to 160 °C at 6 °C min^−1, then, after 1 min, increased 10 °C min^−1 to 210 °C, and finally ramped to 230 °C at 15 °C min^−1, and kept there for 5 min. The temperatures of the ion source and the quadrupole were 230 °C and 150 °C, respectively, and helium at a flow rate of 1.0 mL min^−1 was the carrier gas. The analyses were carried out using the pulsed spitless mode, and mass spectra were recorded at an ionization energy of 70 eV, with mass selective detector operating in the mass range between 30 and 300 u. […]
# Linear retention indices (LRIs) were calculated using the same chromatographic conditions by injecting C8–C40 n-alkane series (Supelco, Bellefonte, PA, USA). VOCs were identified by comparing the mass spectra reported in the NIST-2014 and Wiley 7.0 libraries by matching the calculated LRI with the literature data and by valuating their retention times, with respect to those of pure standards, if available. The VOCs concentrations were expressed as the equivalent of the IS (percent ratio of the respective peak area relative to the IS area, RPA%), and areas were taken from the total ion chromatogram (TIC) according to the following equation: (Peak Area of each VOC/Peak Area IS) × 100. […]
# pOBP [5] = target: T1, pOBP; assay: Thermal denaturation of pOBP by tryptophan fluorescence; format: physicochemical, porcine; conditions: for effect of VOC on thermal stability (Tm) of pOBP: saturating concentrations: 1-pentanol 50 mM, 1-octen-3-ol 5 mM, 2-butanone 10 mM
# Method: (§2) Thermal stability studies were conducted to evaluate the temperature-induced denaturation of the pOBP and bOBP. The experiments aimed to determine the unfolding dynamics of these proteins and assess the influence of VOCs on protein stability. The thermal stabilities of pOBP and bOBP were monitored by fluorescence spectroscopy. The temperature-dependent fluorescence emission spectra were recorded in the range 320–410 nm, with excitation at 295 nm to selectively excite tryptophan residues.
# (§3) Boltzmann fitting was applied to describe the thermal denaturation behavior and determine the melting temperature (Tm) values, defined as the midpoint of the transition between the folded and unfolded states. The calculated Tm values were 62 ± 0.4 °C for pOBP (Figure 6b) and 54 ± 0.5 °C for bOBP (Figure 7b).
# (§4) To analyze the protein’s thermal stability, studies on temperature-induced denaturation were conducted on the chosen OBPs in the absence and presence of the selected VOCs. The emission spectra were recorded at an excitation wavelength of 295 nm to focus only on the contribution of tryptophan residues with a 12 μM pOBP sample, with an optical density around 0.1 OD at 295 nm.
# Fluorescence intensity variation was recorded in the temperature range from 25 to 95 °C and the emission spectra acquired in the wavelength range 320–410 nm. Measurements were performed in triplicate after 10 min of incubation at defined temperatures. […] To analyze the thermal denaturation data, OriginPro 2021b software was used.
# bOBP [6] = target: T3, bOBP; assay: Thermal denaturation of bOBP by tryptophan fluorescence; format: physicochemical, bovine; conditions: saturating VOC concentrations
# Method: as §2, §3, §4
# Fluorescence intensity variation was recorded in the temperature range from 25 to 95 °C and the emission spectra acquired in the wavelength range 320–410 nm. […]
# pOBP [7] = target: T1, pOBP; parameters: method as in earlier work; conditions: HS-DSC, neutral pH; ref 21 (Staiano et al. 2007); cited from earlier work
# pOBP [8] = target: T1, pOBP; assay: Fluorescence quenching (Stern-Volmer) of pOBP; parameters: species or system porcine; conditions: acrylamide quencher, no VOC
# Method: To study the protein conformational changes and accessibility to the tryptophan residues, fluorescence quenching experiments were conducted. According to Lakowicz, acrylamide is the most suitable quencher for tryptophan fluorescence. The quenching effect of acrylamide on the intrinsic fluorescence of the protein was analyzed. The study aimed to characterize the accessibility of tryptophan residues, to differentiate between static and dynamic quenching mechanisms, and to assess the effects of the VOCs binding on protein stability. Fluorescence quenching can occur through two primary mechanisms: dynamic (collisional) and static quenching. Dynamic quenching occurs when acrylamide molecules collide with the fluorophore in its excited state, facilitating a non-radiative energy transfer or electron exchange. […]
# To evaluate the solvent accessibility of the OBP’s tryptophan residues, a fluorescence quenching assay was performed using acrylamide. […] Fluorescence emission spectra were acquired using an excitation wavelength of 295 nm and emission range from 310 to 410 nm.
# Quenching data were evaluated using the Stern–Volmer equation by plotting F0/F against [Q], where F0 represents the fluorescence intensity without quencher, F is the fluorescence intensity in the presence of quencher, and [Q] denotes the quencher concentration [Equation (2)]:(2) F0/F=1+KSV [Q]
# [9] = competitive titration with VOC, Figure 4 insets, read-out: k (Hill fit), decrease of 1-AMA emission at 481 nm, pOBP
# [10] = non-linear fitting, PBS pH 7.4, VOCs by displacement of 1-AMA, read-out: pOBP Kd ± SD
Molecule,Kd (pOBP [1]),Kd (bOBP [2]),"%RPA, pOBP (pOBP [3])",Kd (pOBP [1]; [9]),Kd (pOBP [1]; [10]),"%RPA, BSA [4]",Tm of pOBP in the presence of VOC (pOBP [5]; saturating VOC concentration (1-octen-3-ol 5 mM)),effect of VOC on thermal stability (Tm) of pOBP (pOBP [5]),effect of VOC on thermal stability (Tm) of bOBP (bOBP [6]),unfolding transition temperature of pOBP (pOBP [7]),"Stern-Volmer constant K_SV, pOBP (pOBP [8])","melting temperature (Tm) of pOBP (pOBP [5]; no VOC, Boltzmann fitting, emission 340 nm, 25-95 °C)"
"Nc1cccc2cc3ccccc3cc12 [1-AMA, 1-aminoanthracene, reference compound]",2.03 ± 0.13 µM,2680 ± 460 nM,–,–,–,–,–,–,–,–,–,–
C=CC(O)CCCCC (stereo not drawn) [1-octen-3-ol],–,–,708.1 ± 2.7 %RPA,479 µM,479 ± 53 µM,226.7 ± 8.9 %RPA,64 ± 1.45 °C,significantly stabilized,–,–,–,–
CCCCCO [1-pentanol],–,–,425.0 ± 8.3 %RPA,1860 µM,1800 ± 1200 µM,242.5 ± 5.1 %RPA,–,significantly stabilized,highest stability,–,–,–
CCC(C)=O [2-butanone],–,–,926.7 ± 10.3 %RPA,–,934 ± 56 µM,276.2 ± 2.7 %RPA,–,significantly stabilized,–,–,–,–
"pOBP: porcine odorant-binding protein, a typical monomeric lipocalin used as molecular recognition element (protein, UniProt P81245 1-157, looked up) Odorant-binding protein: QEPQPEQDPFELSGKWITSYIGSSDLEKIGENAPFQVFMRSIEFDDKESKVYLNFFSKENGICEEFSLIGTKQEGNTYDVNYAGNNKFVVSYASETALIISNINVDEEGDKTIMTGLLGKGTDIEDQDLEKFKEVTRENGIPEENIVNIIERDDCPA",–,–,–,–,–,–,–,–,–,approximately 69 °C,3 ± 1 M^−1,62 ± 0.4 °C
